The NIST ThermoML archive (doi:10.1016/j.jct.2011.09.001)
Numbers after ± are expanded uncertainties.

Experiments:
[1] = xn = mol fraction of the nth substance listed; conditions: 101 kPa, Liquid; for speed of sound: Sing-around technique in a fixed-path interferometer; for mass density: Vibrating tube method
[2] = refractive index (Na D-line) (dimensionless); xn = mol fraction of the nth substance listed; conditions: 101 kPa, Liquid, Standard Abbe refractometry

c1ccc2c(c1)CCCC2 [1,2,3,4-tetrahydronaphthalene] + CCCCCCCCCC
Conditions | mass density, [1] [kg/m3] | refractive index, [2] | speed of sound, [1] [m/s]
293.15 K, x1 = 0.1008 | 747.8 ± 0.3 | 1.4216 ± 0.0005 | 1269.3 ± 1.2
293.15 K, x1 = 0.2034 | 766.8 ± 0.3 | 1.4319 ± 0.0005 | 1285.2 ± 1.2
293.15 K, x1 = 0.3 | 786.3 ± 0.3 | 1.4422 ± 0.0005 | 1302.2 ± 1.2
293.15 K, x1 = 0.401 | 807.5 ± 0.3 | 1.4535 ± 0.0005 | 1320.2 ± 1.2
293.15 K, x1 = 0.494 | 828.5 ± 0.2 | 1.4648 ± 0.0005 | 1340.6 ± 1.2
293.15 K, x1 = 0.5949 | 852.8 ± 0.2 | 1.4778 ± 0.0005 | 1363.5 ± 1.2
293.15 K, x1 = 0.7009 | 880.2 ± 0.2 | 1.4925 ± 0.0005 | 1391.2 ± 1.2
293.15 K, x1 = 0.7974 | 907 ± 0.3 | 1.5071 ± 0.0005 | 1418.8 ± 1.2
293.15 K, x1 = 0.8997 | 937.9 ± 0.3 | 1.5239 ± 0.0005 | 1452.7 ± 1.2
293.15 K, x1 = 1 | 969.5 ± 0.2 | 1.5414 ± 0.0005 | 1489.5 ± 1.3
303.15 K, x1 = 0.1008 | 740.2 ± 0.3 | 1.4171 ± 0.0005 | 1230 ± 1.2
303.15 K, x1 = 0.2034 | 759.1 ± 0.3 | 1.4274 ± 0.0005 | 1246.1 ± 1.2
303.15 K, x1 = 0.3 | 778.6 ± 0.3 | 1.4376 ± 0.0005 | 1263.3 ± 1.2
303.15 K, x1 = 0.401 | 799.8 ± 0.3 | 1.449 ± 0.0005 | 1281.4 ± 1.2
303.15 K, x1 = 0.494 | 820.8 ± 0.3 | 1.4602 ± 0.0005 | 1301.9 ± 1.2
303.15 K, x1 = 0.5949 | 845.1 ± 0.2 | 1.4733 ± 0.0005 | 1324.9 ± 1.2
303.15 K, x1 = 0.7009 | 872.4 ± 0.2 | 1.488 ± 0.0005 | 1352.5 ± 1.2
303.15 K, x1 = 0.7974 | 899.1 ± 0.3 | 1.5026 ± 0.0005 | 1380.1 ± 1.2
303.15 K, x1 = 0.8997 | 930 ± 0.3 | 1.5193 ± 0.0005 | 1413.8 ± 1.2
303.15 K, x1 = 1 | 961.6 ± 0.2 | 1.5367 ± 0.0005 | 1450.1 ± 1.2
313.15 K, x1 = 0.1008 | 732.6 ± 0.3 | 1.4126 ± 0.0005 | 1191.3 ± 1.2
313.15 K, x1 = 0.2034 | 751.5 ± 0.3 | 1.4229 ± 0.0005 | 1207.6 ± 1.2
313.15 K, x1 = 0.3 | 770.9 ± 0.3 | 1.4331 ± 0.0005 | 1224.9 ± 1.2
313.15 K, x1 = 0.401 | 792.1 ± 0.3 | 1.4445 ± 0.0005 | 1243.1 ± 1.2
313.15 K, x1 = 0.494 | 812.9 ± 0.3 | 1.4556 ± 0.0005 | 1263.8 ± 1.2
313.15 K, x1 = 0.5949 | 837.3 ± 0.3 | 1.4688 ± 0.0005 | 1286.8 ± 1.2
313.15 K, x1 = 0.7009 | 864.7 ± 0.2 | 1.4835 ± 0.0005 | 1314.5 ± 1.2
313.15 K, x1 = 0.7974 | 891.4 ± 0.3 | 1.498 ± 0.0005 | 1342.1 ± 1.2
313.15 K, x1 = 0.8997 | 922.1 ± 0.3 | 1.5148 ± 0.0005 | 1375.5 ± 1.2
313.15 K, x1 = 1 | 953.7 ± 0.2 | 1.5321 ± 0.0005 | 1411.5 ± 1.2
323.15 K, x1 = 0.1008 | 724.9 ± 0.3 | 1.4081 ± 0.0005 | 1153.1 ± 1.2
323.15 K, x1 = 0.2034 | 743.8 ± 0.3 | 1.4183 ± 0.0005 | 1169.6 ± 1.2
323.15 K, x1 = 0.3 | 763.2 ± 0.3 | 1.4285 ± 0.0005 | 1187.1 ± 1.2
323.15 K, x1 = 0.401 | 784.3 ± 0.3 | 1.4399 ± 0.0005 | 1205.4 ± 1.2
323.15 K, x1 = 0.494 | 805.2 ± 0.3 | 1.4511 ± 0.0005 | 1226.2 ± 1.2
323.15 K, x1 = 0.5949 | 829.5 ± 0.3 | 1.4642 ± 0.0005 | 1249.3 ± 1.2
323.15 K, x1 = 0.7009 | 856.8 ± 0.3 | 1.479 ± 0.0005 | 1277.1 ± 1.2
323.15 K, x1 = 0.7974 | 883.6 ± 0.3 | 1.4933 ± 0.0005 | 1304.6 ± 1.2
323.15 K, x1 = 0.8997 | 914.2 ± 0.3 | 1.5102 ± 0.0005 | 1337.9 ± 1.2
323.15 K, x1 = 1 | 945.7 ± 0.2 | 1.5274 ± 0.0005 | 1373.6 ± 1.2
333.15 K, x1 = 0.1008 | 717.2 ± 0.3 | 1.4035 ± 0.0005 | 1115.5 ± 1.2
333.15 K, x1 = 0.2034 | 736 ± 0.3 | 1.4137 ± 0.0005 | 1132.1 ± 1.2
333.15 K, x1 = 0.3 | 755.4 ± 0.3 | 1.4238 ± 0.0005 | 1149.8 ± 1.2
333.15 K, x1 = 0.401 | 776.5 ± 0.3 | 1.4355 ± 0.0005 | 1168.2 ± 1.2
333.15 K, x1 = 0.494 | 797.3 ± 0.3 | 1.4463 ± 0.0005 | 1189.2 ± 1.2
333.15 K, x1 = 0.5949 | 821.6 ± 0.3 | 1.4597 ± 0.0005 | 1212.4 ± 1.2
333.15 K, x1 = 0.7009 | 849 ± 0.3 | 1.4744 ± 0.0005 | 1240.2 ± 1.2
333.15 K, x1 = 0.7974 | 875.7 ± 0.3 | 1.4887 ± 0.0005 | 1267.8 ± 1.2
333.15 K, x1 = 0.8997 | 906.3 ± 0.3 | 1.5055 ± 0.0005 | 1300.9 ± 1.2
333.15 K, x1 = 1 | 937.8 ± 0.2 | 1.5228 ± 0.0005 | 1336.4 ± 1.2
343.15 K, x1 = 0.1008 | 709.3 ± 0.3 | 1.3988 ± 0.0005 | 1078.4 ± 1.2
343.15 K, x1 = 0.2034 | 728.2 ± 0.3 | 1.4092 ± 0.0005 | 1095.2 ± 1.2
343.15 K, x1 = 0.3 | 747.6 ± 0.3 | 1.4192 ± 0.0005 | 1113.2 ± 1.2
343.15 K, x1 = 0.401 | 768.7 ± 0.3 | 1.4308 ± 0.0005 | 1131.6 ± 1.2
343.15 K, x1 = 0.494 | 789.5 ± 0.3 | 1.4418 ± 0.0005 | 1152.9 ± 1.2
343.15 K, x1 = 0.5949 | 813.7 ± 0.3 | 1.4549 ± 0.0005 | 1176.1 ± 1.2
343.15 K, x1 = 0.7009 | 841.1 ± 0.3 | 1.4697 ± 0.0005 | 1204.1 ± 1.2
343.15 K, x1 = 0.7974 | 867.7 ± 0.3 | 1.4841 ± 0.0005 | 1231.5 ± 1.2
343.15 K, x1 = 0.8997 | 898.4 ± 0.3 | 1.5008 ± 0.0005 | 1264.7 ± 1.2
343.15 K, x1 = 1 | 929.8 ± 0.2 | 1.518 ± 0.0005 | 1299.8 ± 1.2
